For this data set, the system named is CCRIS mutagenicity, Ames/micronucleus/aberration tests. Nature of the data set: CCRIS mutagenicity studies.
[1] abbreviates: Test System: AMES SALMONELLA TYPHIMURIUM, Strain/Indicator: TA98, Metabolic Activation: NONE, Method: PREINCUBATION
[2] abbreviates: Test System: AMES SALMONELLA TYPHIMURIUM, Strain/Indicator: TA100, Metabolic Activation: NONE, Method: PREINCUBATION
Where [3] appears, read: Test System: AMES SALMONELLA TYPHIMURIUM, Strain/Indicator: TA100, Metabolic Activation: RAT, LIVER, S-9, AROCLOR 1254, Method: PREINCUBATION
Where [4] appears, read: Test System: AMES SALMONELLA TYPHIMURIUM, Strain/Indicator: TA1535, Metabolic Activation: NONE, Method: PREINCUBATION
[5] abbreviates: Test System: AMES SALMONELLA TYPHIMURIUM, Strain/Indicator: TA1537, Metabolic Activation: NONE, Method: PREINCUBATION
Where [6] appears, read: Test System: AMES SALMONELLA TYPHIMURIUM, Strain/Indicator: TA100, Metabolic Activation: RAT, LIVER, S-9, AROCLOR 1254, Method: STANDARD PLATE.
Setting [7] is: Test System: AMES SALMONELLA TYPHIMURIUM, Strain/Indicator: TA98, Metabolic Activation: RAT, LIVER, S-9, AROCLOR 1254, Method: STANDARD PLATE.
Where [8] appears, read: Test System: AMES SALMONELLA TYPHIMURIUM, Strain/Indicator: TA98, Metabolic Activation: NONE, Method: STANDARD PLATE.
Where [9] appears, read: Test System: AMES SALMONELLA TYPHIMURIUM, Strain/Indicator: TA100, Metabolic Activation: NONE, Method: STANDARD PLATE.

Activity calls are given as the source filed them. How the calls were made is not given here.

Consider ten molecules from PubChem BioAssay AID1259407 (Chemical Carcinogenesis Research Information System (CCRIS), 2018).

As to `CCCCCCc1ccc(O)cc1O`, the mutagenic call by setting is: (End Point: IN VITRO CHROMOSOMAL ABERRATIONS, Test System: CHO CELLS, Metabolic Activation: NONE) “inactive; negative”; (End Point: IN VITRO CHROMOSOMAL ABERRATIONS, Test System: CHO CELLS, Metabolic Activation: RAT, LIVER, S-9, AROCLOR 1254) “inactive; negative”; (Test System: AMES SALMONELLA TYPHIMURIUM, Strain/Indicator: TA98, Metabolic Activation: HAMSTER, LIVER, S-9, AROCLOR 1254, Method: PREINCUBATION) “inactive; negative”; under setting [1], “inactive; negative”; (Test System: AMES SALMONELLA TYPHIMURIUM, Strain/Indicator: TA98, Metabolic Activation: RAT, LIVER, S-9, AROCLOR 1254, Method: PREINCUBATION) “inactive; negative”; (Test System: AMES SALMONELLA TYPHIMURIUM, Strain/Indicator: TA100, Metabolic Activation: HAMSTER, LIVER, S-9, AROCLOR 1254, Method: PREINCUBATION) “inactive; negative”. Further, the mutagenic call reads like this: under setting [2], “inactive; negative”; under setting [3], “inactive; negative”; (Test System: AMES SALMONELLA TYPHIMURIUM, Strain/Indicator: TA1535, Metabolic Activation: HAMSTER, LIVER, S-9, AROCLOR 1254, Method: PREINCUBATION) “inactive; negative”; under setting [4], “inactive; negative”; (Test System: AMES SALMONELLA TYPHIMURIUM, Strain/Indicator: TA1535, Metabolic Activation: RAT, LIVER, S-9, AROCLOR 1254, Method: PREINCUBATION) “inactive; negative”; (Test System: AMES SALMONELLA TYPHIMURIUM, Strain/Indicator: TA1537, Metabolic Activation: HAMSTER, LIVER, S-9, AROCLOR 1254, Method: PREINCUBATION) “inactive; negative”. The mutagenic call reads like this: under setting [5], “inactive; negative”; (Test System: AMES SALMONELLA TYPHIMURIUM, Strain/Indicator: TA1537, Metabolic Activation: RAT, LIVER, S-9, AROCLOR 1254, Method: PREINCUBATION) “inactive; negative”; (Test System: MOUSE LYMPHOMA, Strain/Indicator: L5178Y (TK+/TK-), Metabolic Activation: NONE, Method: SUSPENSION/PLATE) “inactive; negative”; (Test System: MOUSE LYMPHOMA, Strain/Indicator: L5178Y (TK+/TK-), Metabolic Activation: RAT, LIVER, S-9, AROCLOR 1254, Method: SUSPENSION/PLATE) “active; positive”.

In the case of `Oc1cc2cc3ccccc3cc2c2ccccc12`, the mutagenic call (Test System: CHINESE HAMSTER V-79, Strain/Indicator: V-79/8-AZAGUANINE, Metabolic Activation: NONE, Method: STANDARD PLATE) is “active; positive”.

On to `Cc1nc2ccc(N)cc2nc1C`, for which the mutagenic call was “active; positive” under setting [1]; “active; positive” (Test System: AMES SALMONELLA TYPHIMURIUM, Strain/Indicator: TA98, Metabolic Activation: RAT, LIVER, S-9, PCB, Method: PREINCUBATION); “inactive; negative” under setting [2]; “active; positive” (Test System: AMES SALMONELLA TYPHIMURIUM, Strain/Indicator: TA100, Metabolic Activation: RAT, LIVER, S-9, PCB, Method: PREINCUBATION).

Regarding `c1ccc2c3c(ccc2c1)-c1cccc2cccc-3c12`, the mutagenic call is “inactive; negative” (Test System: AMES SALMONELLA TYPHIMURIUM, Strain/Indicator: TA97A, Metabolic Activation: NONE, Method: PREINCUBATION); “inactive; negative” under setting [1]; “inactive; negative” under setting [2]; “active; positive” under setting [6].

On to `Cc1cnc2c(n1)c(C)cc1c2nc(N)n1C`, for which, under setting [7], the mutagenic call was “active; positive”.

Regarding `CNC(=C[N+](=O)[O-])NCCSCc1ccc(CN(C)C)o1`, the mutagenic call is, setting by setting: (Test System: AMES SALMONELLA TYPHIMURIUM, Strain/Indicator: TA92, Metabolic Activation: NONE, Method: PREINCUBATION) “inactive; negative”; (Test System: AMES SALMONELLA TYPHIMURIUM, Strain/Indicator: TA92, Metabolic Activation: RAT, LIVER, S-9, PHENOBARBITAL AND 5,6-BENZOFLAVONE, Method: PREINCUBATION) “inactive; negative”; (Test System: AMES SALMONELLA TYPHIMURIUM, Strain/Indicator: TA94, Metabolic Activation: NONE, Method: PREINCUBATION) “inactive; negative”; (Test System: AMES SALMONELLA TYPHIMURIUM, Strain/Indicator: TA94, Metabolic Activation: RAT, LIVER, S-9, PHENOBARBITAL AND 5,6-BENZOFLAVONE, Method: PREINCUBATION) “inactive; negative”; under setting [1], “inactive; negative”; (Test System: AMES SALMONELLA TYPHIMURIUM, Strain/Indicator: TA98, Metabolic Activation: RAT, LIVER, S-9, PHENOBARBITAL AND 5,6-BENZOFLAVONE, Method: PREINCUBATION) “inactive; negative”. The mutagenic call under setting [2] is “inactive; negative”; the mutagenic call (Test System: AMES SALMONELLA TYPHIMURIUM, Strain/Indicator: TA100, Metabolic Activation: RAT, LIVER, S-9, PHENOBARBITAL AND 5,6-BENZOFLAVONE, Method: PREINCUBATION) is “inactive; negative”; the mutagenic call under setting [4] was “inactive; negative”; the mutagenic call (Test System: AMES SALMONELLA TYPHIMURIUM, Strain/Indicator: TA1535, Metabolic Activation: RAT, LIVER, S-9, PHENOBARBITAL AND 5,6-BENZOFLAVONE, Method: PREINCUBATION) is “inactive; negative”; the mutagenic call under setting [5] was “inactive; negative”; the mutagenic call (Test System: AMES SALMONELLA TYPHIMURIUM, Strain/Indicator: TA1537, Metabolic Activation: RAT, LIVER, S-9, PHENOBARBITAL AND 5,6-BENZOFLAVONE, Method: PREINCUBATION) is “inactive; negative”. Also, the mutagenic call runs as follows: (Test System: AMES SALMONELLA TYPHIMURIUM, Strain/Indicator: TA1538, Metabolic Activation: NONE, Method: PREINCUBATION) “inactive; negative”; (Test System: AMES SALMONELLA TYPHIMURIUM, Strain/Indicator: TA1538, Metabolic Activation: RAT, LIVER, S-9, PHENOBARBITAL AND 5,6-BENZOFLAVONE, Method: PREINCUBATION) “inactive; negative”; (Test System: E. COLI, Strain/Indicator: WP2 UVRA, Metabolic Activation: NONE, Method: PREINCUBATION) “inactive; negative”; (Test System: E. COLI, Strain/Indicator: WP2 UVRA, Metabolic Activation: RAT, LIVER, S-9, PHENOBARBITAL AND 5,6-BENZOFLAVONE, Method: PREINCUBATION) “inactive; negative”.

Consider `Cc1ccc2nc3ccc(C)cc3c(N)c2c1`, for which the mutagenic call under setting [5] is “active; positive”.

On to `O=C(CBr)c1oc([N+](=O)[O-])c(Cl)c1Cl`, for which the mutagenic call runs as follows: under setting [8], “active; positive”; (Test System: AMES SALMONELLA TYPHIMURIUM, Strain/Indicator: TA100 (NR), Metabolic Activation: NONE, Method: STANDARD PLATE) “active; positive”; under setting [9], “active; positive”; (Test System: AMES SALMONELLA TYPHIMURIUM, Strain/Indicator: TA100, Metabolic Activation: NONE, Method: STANDARD PLATE (ANAEROBIC INCUBATION)) “active; positive”.

Regarding `Nc1c(O)ccc2ccccc12`, the mutagenic call under setting [3] was “inactive; negative”.

Take `CNCCN(Cc1ccc(OC)cc1)c1ccccn1`: the mutagenic call runs as follows: (Test System: AMES SALMONELLA TYPHIMURIUM, Strain/Indicator: TA97, Metabolic Activation: NONE, Method: STANDARD PLATE) “inactive; negative”; (Test System: AMES SALMONELLA TYPHIMURIUM, Strain/Indicator: TA97, Metabolic Activation: RAT, LIVER, S-9, AROCLOR 1254, Method: STANDARD PLATE) “inactive; negative”; under setting [8], “inactive; negative”; under setting [7], “inactive; negative”; under setting [9], “inactive; negative”; under setting [6], “inactive; negative”. Besides, the mutagenic call (Test System: AMES SALMONELLA TYPHIMURIUM, Strain/Indicator: TA102, Metabolic Activation: NONE, Method: STANDARD PLATE) is “inactive; negative” and the mutagenic call (Test System: AMES SALMONELLA TYPHIMURIUM, Strain/Indicator: TA102, Metabolic Activation: RAT, LIVER, S-9, AROCLOR 1254, Method: STANDARD PLATE) was “inactive; negative”.
